# Test results: ChEMBL document CHEMBL5154881, “Discovery of First-in-Class TAK1-MKK3 Protein-Protein Interaction (PPI) Inhibitor (R)-STU104 for the Treatment of Ulcerative Colitis through Modulating TNF-α Production” (J Med Chem, 2022)
# Columns and labels:
# [1] = Tmax in 12 hr starved C57 mouse at 30 mg/kg, po measured for 0.083 to 24 hrs post-dose by LC-MS-MS analysis; assay type: ADME, organism-based; settings: in vivo, time 0.083-24 hrs
# Mus musculus [2] = assay: Anti-ulcerative colitis activity in IL-10-/- C57BL/6 mouse model of ulcerative colitis assessed as histopathological score recovery ratio at 1 mg/kg, IG via gavage for 8 weeks relative to control; assay type: functional
# Mus musculus [3] = assay: Antiinflammatory activity against DSS-induced C57BL/6 mouse model of acute ulcerative colitis assessed as reduction in serum TNF-alpha levels administered intragastrically via gavage measured after 7 days by ELISA; assay type: functional, organism-based; settings: dose 1-10 mg/kg, route ig, time 7.0 day, DDE = dose-dependent effect
# Mus musculus [4] = assay: Antiinflammatory activity against IL-10-/- C57BL/6 mouse model of ulcerative colitis assessed as inhibition ratio of TNF-alpha mRNA expression in colon tissue at 3 mg/kg, IG via gavage and measured after 8 weeks by RT-qPCR analysis relative to control; assay type: functional; parameters: scale not given: the % may be the effect or the level left
# Mus musculus [5] = assay: Antiinflammatory activity against IL-10-/- C57BL/6 mouse model of ulcerative colitis assessed as inhibition ratio of IL-6 protein expression at 3 mg/kg, IG via gavage and measured after 8 weeks by ELISA relative to control; assay type: functional; parameters: scale not given: the % may be the effect or the level left
# Mus musculus [6] = assay: Antiinflammatory activity against DSS-induced C57BL/6 mouse model of acute ulcerative colitis assessed as inhibition ratio of IL-23 protein expression at 3 mg/kg, IG via gavage measured after 7 days by ELISA relative to control; assay type: functional; parameters: scale not given: the % may be the effect or the level left; settings: time 7 day
# Mus musculus [7] = assay: Inhibition of MKK3-p38 MAPK-elF4E signaling pathway in C57BL/6 mouse model of acute ulcerative colitis assessed as decrease in DSS-induced MK2 phosphorylation in colon tissue administered intragastrically via gavage measured after 7 days by Western blot analysis; settings: dose 1-50 mg/kg, time 7.0 day, DDE = dose-dependent effect
# [8] = Metabolic stability in mouse liver microsomes assessed as intrinsic clearance; assay type: ADME, Microsome
# [9] = Toxicity in C57 mouse assessed as body weight loss at 50 to 500 mg/kg, po administered daily for 14 days; assay type: organism-based; settings: in vivo, 336 h, dose 50-500 mg/kg, time 14 day
compound,measurement,setting,value
COc1ccc([C@H]2CC(=O)c3cc(OC)cc(OC)c32)cc1,Tmax,[1],4.98 min
same,Activity,Mus musculus [2],33%
same,Activity,Mus musculus [3],Dde
same,Activity,Mus musculus [4],69.5%
same,Activity,Mus musculus [5],44.5%
same,Activity,Mus musculus [6],51.6%
same,inhibition,Mus musculus [7],Dde
same,CLH,[8],1730.2 mL/min/g
same,Activity,[9],Non-Toxic
